According to patent US20230390265A1, “IRAK4 Inhibitors and Topical Uses Thereof” (Dermira, Inc., priority 2020, published 2023):
Entries after “also recorded” stand apart in the source; their conditions may differ.

Tested on: TNFα protein expression
Test: Skin resident immune cell assay (sRICA), LPS-stimulated human skin, TNFα protein
Assay type: cell-based
Settings: positive control, applied topically
Method: The anti-inflammatory activity of the IRAK4/TrkA inhibitors was determined in a skin resident immune cell assay (sRICA). In this model, human surgical skin waste was cultured in a transwell system, with the dermis in contact with cell culture media and the stratum corneum exposed to air. To perform the assay, each human skin sample was defatted and dermatomed to 750 μm. Next, 8 mm punch biopsies were obtained and placed in a membrane transwell. The biopsies were prepared with a barrier ring to contain the formulation and prevent leakage of the formulation. The transwells were inserted into culture wells with complete media, and a cocktail of cytokines and antibodies and/or inflammatory stimuli were added to promote skin resident immune cell polarization and/or elicitation of a specific inflammatory response. The transwells were treated with LPS as a positive control, a vehicle as a negative control, and various dual IRAK/TrkA inhibitors. TNFα protein expression was measured and the mean TNFα protein level in the LPS treated samples was set to 100%.
The Compounds were formulated at 80% saturated solubility. […]
Except for the 0.5% Compound 1/NAG6 formulations, all Round 2 formulations were manufactured at 80% saturation. […] Conditioned cell media was collected and assessed for expression of inflammatory proteins after 48 hours of exposure to LPS stimulation.

CCC(=O)O[C@]1(C(=O)CCl)[C@@H](C)C[C@H]2[C@@H]3CCC4=CC(=O)C=C[C@]4(C)[C@@]3(F)[C@@H](O)C[C@@]21C [Clobetasol]
Effect on LPS-induced TNFα production / inflammation: significantly reduced inflammation back to baseline levels; also recorded: completely inhibited TNFα induction
